From patent US20060014812A1, “Use of estrogen related receptor-modulating aryl ethers” (priority 2004, published 2006)

Key:
[1] = molecular target: T1, ligand binding domain of ERR-α (aa 183-424) (Homo sapiens, UniProt P11474); experiment: ThermoFluor thermal-shift binding affinity screen against ERR-α ligand binding domain; conditions: 100 μM test compound, 0.1 mg/mL ERR-α, pH 7.6, Kd estimated from melting temperature shift at reference temperature, read-out: TF Kd
T1 construct: His tag (N); thrombin cleavage site (N); made in house; host or cells: E. coli BL21(DE3+)
T1 sequence (P11474 183-423 limits assumed): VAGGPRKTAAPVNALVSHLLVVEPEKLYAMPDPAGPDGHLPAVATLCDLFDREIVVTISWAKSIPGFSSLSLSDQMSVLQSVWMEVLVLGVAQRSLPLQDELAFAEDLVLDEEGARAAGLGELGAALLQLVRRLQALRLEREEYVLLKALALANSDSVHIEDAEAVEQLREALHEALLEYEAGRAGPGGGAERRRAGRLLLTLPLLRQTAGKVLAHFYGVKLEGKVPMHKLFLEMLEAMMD
Experimental: The ligand binding domain of ERR-α (aa 183-424) was subcloned in frame with the N-terminal His tag and the cleavable thrombin site in pET28. The protein was expressed in BL21(DE3^+) following induction with 100 μM IPTG at 16° C. Cells were harvested after 16 hours (h) of induction and lysed in 20 mM Tris pH 7.5, 500 mM NaCl, 5 mM imidazole, 5% glycerol, protease inhibitor cocktail (-EDTA) and 2 mM β-ME. Insoluble material was removed by centrifugation at 40,000×g for 1 hr. Clarified homogenate was applied on a Ni-NTA column and after applying an imidazole gradient the protein was eluted. The protein was further purified on size exclusion chromatography to an apparent homogeneity of 95% as judged by SDS-PAGE chromatography.
Binding affinities of compounds were determined by screening against the ligand binding domain of ERR-α using ThermoFluor® technology (U.S. Pat. No. 6,020,141 and U.S. Pat. No. 6,036,920, and Journal of Biomolecular Screening 6 (6), […], pgs 429-440). Assay plates were prepared by dispensing 2 μL of a protein-dye solution and 2 μL of the test compound in a 384-well plate. The conditions used in the screen were: 0.1 mg/mL ERR-α, 25 mM Na-phosphate buffer at pH 7.6, 200 mM NaCl, 10% glycerol, 16 μM ANS, 2% DMSO and the final concentration of test compound was 100 μM. Finally 1 μL of mineral oil was dispensed on top to prevent evaporation during the high throughput screen (HTS). ThermoFluor® is an HTS assay that measures protein unfolding based on fluorescence detection of the denatured form of the protein. The reporter for the protein unfolding event is the environmentally sensitive dye ANS that is incorporated in the screening buffer. During a typical experiment the 384-well plate is heated at a ramping rate of 1° C./min and the thermal unfolding of the protein is monitored at 1° C. intervals by measuring fluorescence changes detected through a CCD camera. Captured images are integrated and a melting curve is generated that relates fluorescence to fraction of unfolded protein as a function of temperature. For the ERR-α screen, data were collected from 30 to 80° C. at 1° C. intervals and the protein melted under the screening conditions with a characteristic melting temperature, Tm, of 52.1° C. Hits were identified from the screen by measuring an increase in the melting temperature of the protein.
In order to estimate binding affinities, it was taken into account that the oligomeric state of ERR-α, which is a dimer (N2), and that of a single ligand (Lf) can interact per monomer subunit with equal affinity. The melting curve for such a system is described by the following three equilibria: [formula] The first equilibrium describes the denaturation of ERR-α dimers; the second equilibrium describes the dissociation of the first ligand from the single ligand occupied ERR-α dimers (N2L); and the third equilibrium describes the dissociation of the second ligand from the fully occupied ERR-α dimers (N2L2).
Following the derivations of Brandts and Lin (Biochemistry, 29, 6967, 1990) the dissociation constants for the ligands (Kd1^t^m) can be determined at T=Tm for any ligand concentration Lt by solving numerically the conservation of mass equations: [formula] and Ku is in the unfolding equilibrium constant for ERR-α dimers that is calculated from the melting curve of the protein in the absence of ligand as described by Pantoliano et al. (J. Biomolecular Screening, 6, 429, 2001) and Bowie & Sauer (Biochemistry, 28, 7139, 1989).
To compare dissociation constants at a common reference temperature, Tref, the following equation was used: [formula] where • Kd^ref=is the dissociation constant of the ligand at a reference temperature Tref • ΔHb^ref=is the binding enthalpy of the ligand to the protein at a reference temperature Tref. […]

[2] = molecular target: T2, ERR-α (Homo sapiens, UniProt P11474); experiment: 2-Hybrid cell based luciferase reporter assay (pBIND-Gal4-ERR-α / pACT-SRC2) in HEK293E cells; conditions: 24 hours compound treatment, firefly luciferase normalized to Renilla, average from three independent experiments
T2 construct: expressed in transfected cells; host or cells: HEK293E
T2 sequence (P11474 1-423): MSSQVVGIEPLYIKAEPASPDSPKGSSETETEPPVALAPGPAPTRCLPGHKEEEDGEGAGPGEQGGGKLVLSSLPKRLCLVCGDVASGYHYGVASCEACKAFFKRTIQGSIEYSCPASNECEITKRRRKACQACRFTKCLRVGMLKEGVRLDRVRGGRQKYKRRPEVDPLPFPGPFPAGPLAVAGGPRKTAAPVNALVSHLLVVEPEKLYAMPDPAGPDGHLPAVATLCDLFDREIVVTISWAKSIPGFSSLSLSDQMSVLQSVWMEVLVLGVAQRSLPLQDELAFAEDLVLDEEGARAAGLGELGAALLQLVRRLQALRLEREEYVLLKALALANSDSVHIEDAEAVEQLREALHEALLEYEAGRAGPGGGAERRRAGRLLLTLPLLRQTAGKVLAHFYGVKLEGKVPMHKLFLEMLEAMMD
Experimental: A cell based reporter assay was also used to determine the functional response of the ERR-α hits. Transfections were performed in HEK293E cells that were maintained in DMEM supplemented in glutamine and 10% FBS. Co-transfections of 4 μg of a luciferase reporter plasmid and 4 μg of each pBIND-Gal4-ERR-α and pACT-SRC2 plasmids per T-75 flask were done using Lipofectamine as per manufacturers instructions. Twenty-four hours post-transfection, the cells were seeded in 96-well plates at density of 50,000 cells per well in assay media (DMEM phenol free, 5% charcoal stripped FBS). The cells were allowed to adhere to the bottom of the wells (approximately 5 hours post-seeding) and the compounds were dosed and the final concentration of DMSO was kept below 0.3%. After 24 hours of compound treatment cells were lysed and treated with the Promega Dual-Glo system. Firefly Luciferase activity was read using a luminescence plate reader, and data were normalized against Renilla luciferase activity. Data were fitted using subroutines available from GraphPad. The reported IC50 values shown in the table below are the average from three independent experiments for the compounds tested.

SMILES: COc1cc(/C=C2\SC(=O)NC2=O)ccc1Oc1ccc([N+](=O)[O-])c(C(F)(F)F)c1 [Example 11, 5-[3-Methoxy-4-(4-nitro-3-trifluoromethyl-phenoxy)-benzylidene]-thiazolidine-2,4-dione]
- Kd [1]: 529 nM
- IC50 [2]: 1000 nM

SMILES: COc1cc(/C=C(\C#N)c2nn(-c3ccccc3)c(N)c2C#N)ccc1Oc1ccc(C(F)(F)F)cc1[N+](=O)[O-] [Example 1, 5-Amino-3-{1-cyano-2-[3-methoxy-4-(2-nitro-4-trifluoromethyl-phenoxy)-phenyl]vinyl}-1-phenyl-1H-pyrazole-4-carbonitrile]
- Kd [1]: 6070 nM
- IC50 [2]: 6070 nM

SMILES: COc1cc(/C=C2\SC(N)=NC2=O)ccc1Oc1ccc(C#N)c(C(F)(F)F)c1 [Example 8, 4-[4-(2-Amino-4-oxo-4H-thiazol-5-ylidenemethyl)-2-methoxy-phenoxy]-2-trifluoromethyl-benzonitrile]
- Kd [1]: 473 nM
- IC50 [2]: 140 nM

SMILES: COc1cc(/C=C2\SC(N)=NC2=O)ccc1Oc1ccc(C(F)(F)F)cc1[N+](=O)[O-] [Example 7, 2-Amino-5-[3-methoxy-4-(2-nitro-4-trifluoromethyl-phenoxy)-benzylidene]-thiazol-4-one]
- Kd [1]: 359 nM
- IC50 [2]: 500 nM

SMILES: COc1cc(/C=C(\C#N)c2nn(-c3ccccc3)c(N)c2C#N)ccc1Oc1ccc(C#N)c(C(F)(F)F)c1 [Example 4, 5-Amino-3-{1-cyano-2-[4-(4-cyano-3-trifluoromethyl-phenoxy)-3-methoxy-phenyl]-vinyl}-1-phenyl-1H-pyrazole-4-carbonitrile]
- Kd [1]: 1430 nM
- IC50 [2]: 1430 nM

SMILES: N#C/C(=C\c1ccc(Oc2ccc(C(F)(F)F)cc2[N+](=O)[O-])cc1)c1nn(-c2ccccc2)c(N)c1C#N [Example 2, 5-Amino-3-{1-cyano-2-[4-(2-nitro-4-trifluoromethyl-phenoxy)-phenyl]-vinyl}-1-phenyl-1H-pyrazole-4-carbonitrile]
- Kd [1]: 7780 nM
- IC50 [2]: 7780 nM

SMILES: COc1cc(/C=C(\C#N)c2nn(-c3ccccc3)c(N)c2C#N)ccc1Oc1ccc([N+](=O)[O-])c(C(F)(F)F)c1 [Example 3, 5-Amino-3-{1-cyano-2-[3-methoxy-4-(4-nitro-3-trifluoromethyl-phenoxy)-phenyl]-vinyl}-1-phenyl-1H-pyrazole-4-carbonitrile]
- Kd [1]: 1710 nM
- IC50 [2]: 1710 nM

SMILES: N#C/C(=C\c1ccc(Oc2ccccc2)cc1)c1nn(-c2ccccc2)c(N)c1C#N [Example 5, 5-Amino-3-[1-cyano-2-(4-phenoxy-phenyl)-vinyl]-1-phenyl-1H-pyrazole-4-carbonitrile]
- Kd [1]: 26000 nM
- IC50 [2]: 26000 nM

SMILES: COC(=O)c1ccc(Oc2ccc(/C=C3\SC(=O)NC3=O)cc2OC)cc1C(F)(F)F [Example 15, 4-[4-(2,4-Dioxo-thiazolidin-5-ylidenemethyl)-2-methoxy-phenoxy]-2-trifluoromethyl-benzoic acid methyl ester]
- Kd [1]: 114 nM
- IC50 [2]: 1500 nM

SMILES: COc1cc(/C=C2\SC(=O)NC2=O)ccc1Oc1ccc(C#N)c(C(F)(F)F)c1 [Example 12, 4-[4-(2,4-Dioxo-thiazolidin-5-ylidenemethyl)-2-methoxy-phenoxy]-2-trifluoromethyl-benzonitrile]
- Kd [1]: 463 nM
- IC50 [2]: 50 nM
